The record followed here is patent US9107851B2, “Solventless mixing process for coating pharmaceutical ingredients” (New Jersey Institute of Technology, priority 2012, dated 2015).

The nature of this data set: USP dissolution test (Apparatus II paddles, pH 7.2 phosphate buffer with SDS, 37° C.). The following applies: for Time to dissolve: uncoated; for Initial dissolution rate (—): grinding pressure 0. In kind it is physicochemical. The protocol: The coated API core particles have the taste of the API masked to allow easy swallowing or even chewing by patients. The API is still released from the coated API core particles in relatively short time. A USP Dissolution Test may be used to assess the release of API from the coated API core particles. The dissolution test employs a media of 7.2 pH phosphate buffer solution with 0.4 g/L sodium dodecyl sulfate (SDS, used to ensure wetting of the powders) at 37° C. and is carried out in USP Apparatus II (paddles) rotating at 50 RPM. The percentage of active pharmaceutical ingredient that is dissolved is measured over time. The coated API core particles can release the API in 30 minutes or less as measured in the USP Dissolution test, or in 20 minutes or less as measured in the USP dissolution test.

Molecules are shown by their SMILES.

Turning to `O=C1O[C@H]([C@@H](O)CO)C(O)=C1O` [ascorbic acid], the Time to dissolve is 10 s (Example 23: 45 μm-63 μm), “less than 20 seconds” (Example 23: 90 μm-125 μm), “less than 60 seconds” (Example 23: 150 μm-250 μm) and “less than 60 seconds” (Example 23: 425 μm-500 μm). Besides, the “Initial dissolution rate (—)” value (ascorbic acid initial d50 93 μm) was 9.16, the “Initial dissolution rate (—)” value (ascorbic acid initial d50 192 μm) is on record as 7.764 and the “Initial dissolution rate (—)” value (ascorbic acid initial d50 341 μm) stood at 4.053.
